Experimental data taken from US11795177B2, “Substituted quinoline analogs as aldehyde dehydrogenase 1A1 (ALDH1A1) inhibitors” (THE UNITED STATES OF AMERICA, AS REPRESENTED BY THE …, priority 2017, dated 2023).

system: MIA PaCa-2 cells; experiment: MIA PaCa2 cell-based assay (1,536-well high-content imaging ALDEFLUOR assay); design: species or system human; conditions: Homo sapiens, 0.5 h, ALDEFLUOR BAAA substrate 500 nM, 30 minutes
Protocol: Example 359. MIA PaCa2 Cell-Based Assay (In Vitro Assay)
1,536-Well High-Content Imaging ALDEFLUOR Assay
The ALDEFLUOR™ kit was purchased from […] Technologies (Vancouver, Canada; #01700). MIA PaCa-2 cells (5 μL; 1,000 cells/well) were dispensed into black, optical quality (cyclic olefin copolymer) clear bottom, medium binding TC treated 1,536-well plates (Aurora Microplates, Whitefish Mont.) using a Multidrop Combi dispenser (ThermoFisher) and incubated overnight (37° C., 5% CO2, 85% RH). Media (RPMI 1640 (Life Technologies, Carlsbad, Calif.), supplemented with 2 mM L-Glutamine (Life Technologies), 10% HyClone™ fetal bovine serum (FBS, GE Healthcare, Piscataway, N.J.) and 100 U/mL penicillin and 100 μg/mL streptomycin (Life Technologies)) was subsequently removed by centrifuging plates upside down using a plate adaptor to collect media. A solution of BAAA substrate ([…] Technologies) and Hoechst 33342 (ThermoFisher, final concentrations of 500 nM and 0.5 nM, respectively) in ALDEFLUOR™ buffer ([…] Technologies #01700) was dispensed onto cells using a Multidrop Combi followed by immediate transfer (23 nL) of compound or control solutions using a Wako Pin-tool (final percentage of DMSO in the cell plates was 0.5%). Unless otherwise noted, all compounds were assayed as 16-point dilutions spanning a final concentration range of 1.4 nM to 47.8 μM. The neutral and positive assay controls were DMSO and DEAB (4.6 μM), respectively. Cells were incubated for 30 minutes or the indicated amount of time at 37° C., 5% CO2, 85% RH to allow the conversion of BAAA into BAA. Supernatant was subsequently removed by centrifugation as described above, then ALDEFLUOR™ buffer (3 μl) was dispensed by Multidrop Combi before imaging on an IN Cell 2200 (GE Healthcare).
The above assay was modified for an online robotic screening system. After cell plating and overnight incubation, 4 μL of media were removed using a 64-tip metal aspirator head on a Wako aspirator station, leaving 1 μL remaining in the well, followed by a 4 μL dispense of BAAA and Hoechst 33342 in ALDEFLUOR™ buffer, for a final concentration of 500 nM and 0.5 nM, respectively Immediately following the dispense, 23 nL of compound or control solutions were transferred using a Wako Pin-tool. Cells were incubated for 30 minutes at 37° C., 5% CO2, 85% RH, followed by a 4 μL media removal using the Wako aspirator, and a subsequent 3 μL addition of ALDEFLUOR™ buffer. Plates were then immediately read on the IN Cell 2200 as described below.
Image Acquisition and Analysis
For images captured on the IN Cell 2200 widefield automated microscope, a 10×0.45 NA Plan Apo objective lens was used to capture the entire well of the 1,536-well plate using standard DAPI (390/18×, 432/48 m) and FITC (475/28×, 525/48 m) filter sets at 50 msec and 100 msec exposures, respectively. Images were subsequently analyzed using IN Cell Investigator v1.6.2 analysis software's canned Multi-Target Analysis algorithm (GE Healthcare). Hoechst stained nuclei were identified using top hat segmentation with a minimum area of 75 μm^2 and sensitivity of 93. BAA-retaining cells captured via FITC channel, were identified using multiscale top hat segmentation with a minimum area of 100 μm^2 and a sensitivity setting of 16. […] Data were plotted using GraphPad Prism software (GraphPad, San Diego, Calif.).

| Compound | IC50 |
| --- | --- |
| CS(=O)(=O)N1CCN(C(=O)c2cnc3ccc(F)cc3c2N2CCC(C#N)(c3ccc(F)cc3)CC2)CC1 [Example 279, 1-(6-fluoro-3-(4-(methylsulfonyl)piperazine-1-carbonyl)quinolin-4-yl)-4-(4-fluorophenyl)piperidine-4-carbonitrile] | < 500 nM |
| CC1(C)CC=C(c2c(C(=O)N3CCN(S(C)(=O)=O)CC3)cnc3ccc(F)cc23)CC1 [Example 301, (4-(4,4-dimethylcyclohex-1-en-1-yl)-6-fluoroquinolin-3-yl)(4-(methylsulfonyl)piperazin-1-yl)methanone] | < 500 nM |
| N#CC1(c2ccc(-c3c(C(=O)N4CCN(C(=O)C5CC5)CC4)cnc4ccsc34)cc2)CC1 [Example 288, 1-(4-(6-(4-(cyclopropanecarbonyl)piperazine-1-carbonyl)thieno[3,2-b]pyridin-7-yl)phenyl)cyclopropanecarbonitrile] | < 500 nM |
| N#CC1(c2ccc(-c3c(C(=O)N4CCN(C(=O)C5CC5)CC4)cnc4ccc(Cl)cc34)cc2)CC1 [Example 294, 1-(4-(6-chloro-3-(4-(cyclopropanecarbonyl)piperazine-1-carbonyl)quinolin-4-yl)phenyl)cyclopropanecarbonitrile] | < 500 nM |
| CS(=O)(=O)N1CCN(C(=O)c2cnc3c(F)cc(F)cc3c2N2CCC(C#N)(c3ccccc3)CC2)CC1 [Cpd. 320, 1-(6,8-difluoro-3-(4-(methylsulfonyl)piperazine-1-carbonyl)quinolin-4-yl)-4-phenylpiperidine-4-carbonitrile] | < 500 nM |
| CC(C)(C#N)c1ccc(-c2c(C(=O)N3CCN(S(C)(=O)=O)CC3)cnc3ccc(F)cc23)c(F)c1 [Cpd. 311, 2-(3-fluoro-4-(6-fluoro-3-(4-(methylsulfonyl)piperazine-1-carbonyl)quinolin-4-yl)phenyl)-2-methylpropanenitrile] | < 500 nM |
| COc1ccc2c(-c3ccc(C4(C#N)CC4)cc3)c(C(=O)N3CCN(S(C)(=O)=O)CC3)cnc2c1 [Cpd. 322, 1-(4-(7-methoxy-3-(4-(methylsulfonyl)piperazine-1-carbonyl)quinolin-4-yl)phenyl)cyclopropane-1-carbonitrile] | < 500 nM |
| CS(=O)(=O)N1CCN(C(=O)c2cnc3ccc(F)cc3c2N2CCC(C#N)(c3ccc(Cl)cc3)CC2)CC1 [Example 275, 4-(4-chlorophenyl)-1-(6-fluoro-3-(4-(methylsulfonyl)piperazine-1-carbonyl)quinolin-4-yl)piperidine-4-carbonitrile] | < 500 nM |
| CCS(=O)(=O)N1CCN(C(=O)c2cnc3ccc(F)cc3c2N2CCC(C)(C#N)CC2)CC1 [Example 156, 1-(3-(4-(ethylsulfonyl)piperazine-1-carbonyl)-6-fluoroquinolin-4-yl)-4-methylpiperidine-4-carbonitrile] | 1000 to 10000 nM |
| CS(=O)(=O)N1CCN(C(=O)c2cnc3ccc(F)cc3c2N2CCC(O)(c3ccccc3)CC2)CC1 [Example 292, (6-fluoro-4-(4-hydroxy-4-phenylpiperidin-1-yl)quinolin-3-yl)(4-(methylsulfonyl)piperazin-1-yl)methanone] | 1000 to 10000 nM |
| N#CC1(c2ccc(-c3c(C(=O)N4CCN(C(=O)C5CC5)CC4)cnc4ccc(F)cc34)cc2)CC1 [Example 262, 1-(4-(3-(4-(cyclopropanecarbonyl)piperazine-1-carbonyl)-6-fluoroquinolin-4-yl)phenyl)cyclopropanecarbonitrile] | < 500 nM |
| CS(=O)(=O)N1CCN(C(=O)c2cnc3ccc(F)cc3c2-c2ccc(C3(C#N)CCCC3)cc2)CC1 [Cpd. 309, 1-(4-(6-fluoro-3-(4-(methylsulfonyl)piperazine-1-carbonyl)quinolin-4-yl)phenyl)cyclopentanecarbonitrile] | < 500 nM |
| CS(=O)(=O)N1CCN(C(=O)c2cnc3cc(F)c(F)cc3c2N2CCC(C#N)(c3ccccc3)CC2)CC1 [Cpd. 319, 1-(6,7-difluoro-3-(4-(methylsulfonyl)piperazine-1-carbonyl)quinolin-4-yl)-4-phenylpiperidine-4-carbonitrile] | < 500 nM |
| CS(=O)(=O)N1CCN(C(=O)c2cnc3ccsc3c2-c2ccc(C3(C#N)CC3)cc2)CC1 [Example 286] | < 500 nM |
| CS(=O)(=O)N1CCN(C(=O)c2cnc3ccc(F)cc3c2N2CCC(C#N)(Cc3ccccc3)CC2)CC1 [Example 245, 4-benzyl-1-(6-fluoro-3-(4-(methylsulfonyl)piperazine-1-carbonyl)quinolin-4-yl)piperidine-4-carbonitrile] | 1000 to 10000 nM |

The next lines start with the values.

| IC50 | Compound |
| --- | --- |
| > 10000 nM | CC1(C#N)CCN(c2c(C(=O)N3CCN(S(C)(=O)=O)CC3)cnc3[nH]ncc23)CC1 [Example 235, 4-methyl-1-(5-(4-(methylsulfonyl)piperazine-1-carbonyl)-1H-pyrazolo[3,4-b]pyridin-4-yl)piperidine-4-carbonitrile] |
| 1000 to 10000 nM | O=C(c1cnc2cc(F)c(F)cc2c1N1CCC2(CC1)OCCO2)N1CCN(C(=O)C2CC2)CC1 [Example 122, (4-(cyclopropanecarbonyl)piperazin-1-yl)(6,7-difluoro-4-(1,4-dioxa-8-azaspiro[4.5]decan-8-yl)quinolin-3-yl)methanone] |
| 1000 to 10000 nM | O=C(c1cnc2ccc(Cl)cc2c1N1CCC2(CC1)OCCO2)N1CCN(C(=O)C2CC2)CC1 [Example 45, (6-chloro-4-(1,4-dioxa-8-azaspiro[4.5]decan-8-yl)quinolin-3-yl)(4-(cyclopropanecarbonyl)piperazin-1-yl)methanone] |
| 1000 to 10000 nM | CC1(C#N)CCN(c2c(C(=O)N3CCN(C(=O)C4CC4)CC3)cnc3sccc23)CC1 [Example 219, 1-(5-(4-(cyclopropanecarbonyl)piperazine-1-carbonyl)thieno[2,3-b]pyridin-4-yl)-4-methylpiperidine-4-carbonitrile] |
| 1000 to 10000 nM | CC1(C#N)CCN(c2c(C(=O)N3CCC(C(=O)C4CC4)CC3)cnc3ccc(F)cc23)CC1 [Example 194, 1-(3-(4-(cyclopropanecarbonyl)piperidine-1-carbonyl)-6-fluoroquinolin-4-yl)-4-methylpiperidine-4-carbonitrile] |
| 1000 to 10000 nM | CN(C)C(=O)N1CCN(C(=O)c2cnc3ccc(F)cc3c2N2CCC(C)(C#N)CC2)CC1 [Example 182, 4-(4-(4-cyano-4-methylpiperidin-1-yl)-6-fluoroquinoline-3-carbonyl)-N,N-dimethylpiperazine-1-carboxamide] |
| > 10000 nM | CC(=O)N1CCN(c2c(C(=O)N3CCN(C(=O)C4CC4)CC3)cnc3ccc(F)cc23)CC1 [Cpd. 304, 1-(4-(3-(4-(cyclopropanecarbonyl)piperazine-1-carbonyl)-6-fluoroquinolin-4-yl)piperazin-1-yl)ethanone] |
| 1000 to 10000 nM | Cn1ncc2c(N3CCC(C)(C#N)CC3)c(C(=O)N3CCN(S(C)(=O)=O)CC3)cnc21 [Example 206, 4-methyl-1-(1-methyl-5-(4-(methylsulfonyl)piperazine-1-carbonyl)-1H-pyrazolo[3,4-b]pyridin-4-yl)piperidine-4-carbonitrile] |
| > 10000 nM | COc1ccc2ncc(C(=O)N3CCN(C(=O)C4CC4)CC3)c(N3CCC(=O)CC3)c2c1 [Example 67, 1-(3-(4-(cyclopropanecareonyl)piperazine-1-carbonyl)-6-methoxyquinolin-4-yl)piperidin-4-one] |
| < 500 nM | CCC1(C#N)CCN(c2c(C(=O)N3CCN(C(=O)C4CC4)CC3)cnc3ccc(F)cc23)CC1 [Example 202, 1-(3-(4-(cyclopropanecarbonyl)piperazine-1-carbonyl)-6-fluoroquinolin-4-yl)-4-ethylpiperidine-4-carbonitrile] |
| < 500 nM | N#CC1(c2ccccc2)CCN(c2c(C(=O)N3CCN(C(=O)C4CC4)CC3)cnc3ccc(Cl)cc23)CC1 [Cpd. 313, 1-(6-chloro-3-(4-(cyclopropanecarbonyl)piperazine-1-carbonyl)quinolin-4-yl)-4-phenylpiperidine-4-carbonitrile] |
